US8895526B2, “Identification of RNAI targets and use of RNAI for rational therapy of chemotherapy-resistant leukemia and other cancers” (Cold Spring Harbor Laboratory, priority 2009, dated 2014)

Key:
[1] = tested on: Molm13
[2] = tested on: Kasumi1
[3] = tested on: non-transformed 32D cell line; conditions: different concentrations
[4] = tested on: HL60
[5] = tested on: MLL-AF9/Nras leukemia cells; conditions: different concentrations
[6] = Tolerability of anthracycline in mice; format: in vivo; conditions: applied intraperitoneally
Experimental: To study factors that influence the outcome of conventional AML therapy in mice, we established a simple chemotherapy regimen involving intraperitoneal injection of cytarabine (100 mg/kg over 5 days) and doxorubicin (3 mg/kg over 3 days; FIG. 36A), which mimics the standard induction therapy used to treat AML in human patients. […] Efficacy and safety of this regimen were initially evaluated in a previously described model based on co-transduction of MLL/ENL and FLT3-ITD (Ono et al. 2005). In order to rapidly generate homogenous treatment cohorts we harvested bone marrow and spleen from terminally ill primary FLC recipient mice and transplanted 1 million leukemia cells into 20-30 secondary recipients. In initial studies, we noted that this combination therapy was not tolerated in mice when treatment was initiated based on a high leukemia burden in the peripheral blood; although the peripheral disease disappeared within two days, animals died shortly thereafter with peripheral leukopenia.

[7] = tested on: HCT116 cells; test: siRNA cytotoxicity: reduction in HCT116 culture confluency after transfection; format: cell-based, human; conditions: relative to negative control RNAi cultures
Experimental: siRNAs derived from the shRNAs of Example 2 were all highly cytotoxic to HCT116 cells. The siRNA sequences and shRNAs from which they were derived are shown below
Cytotoxicity was determined by the reduction in culture confluency over time after transfection of the siRNA relative to negative control RNAi cultures.

[8] = tested on: mouse liver carcinoma cells; test: Subcutaneous liver carcinoma tumor growth after doxycycline induction of shRNA; format: in vivo, nude mice; conditions: doxycycline 2 mg/ml in drinking water from two weeks after injection
Experimental: One million mouse liver carcinoma cells transduced with an inducible shRpa3.457 were injected subcutaneously in nude mice. Two weeks after injection, mice were either treated with doxycycline 2 mg/ml in their drinking water, or left untreated. Change in tumor volumes was measured following treatment.

[9] = tested on: Mouse hepatocellular carcinoma cells (Hepa1.6); test: Hepa1.6 colony formation assay; format: cell-based; conditions: high MOI, low density plating, crystal violet
Experimental: (FIG. 8A) Mouse hepatocellular carcinoma cells (Hepa1.6) were transduced at high MOI with shRNAs targeting replication genes. Cells were plated at low density, stained with crystal violet, and staining was quantified on a Licor scanner. Values are normalized to empty vector control. (FIG. 8B) Representative scans of colony formation assays of cells infected with an antiproliferative shRNA (top—shRpa3.457) or empty vector control (bottom).
An assay similar to that described in Example 1 was used to test the effect of RNAi molecules against genes encoding DNA replication proteins in mouse cancer cells (Hepa1.6). Similar results in mouse cells were observed as compared to human cells (FIG. 8 and FIG. 9). For example, mouse tumors regress upon induction of RNAi against Rpa3 (FIG. 17).

[10] = tested on: Hepa1.6 cells; test: In vitro competition assay in Hepa1.6 cells; format: cell-based, mouse; conditions: five passages 1:8
Text: Two days after transduction with a GFP-tagged vector, the number of fluorescent cells was quantified. Cells were passaged 1:8 five times, and the number of GFPpositive transduced cells was quantified at each passage.

With `N[C@@H]1C[C@H]1c1ccccc1` (racemic) [tranylcypromine] the growth [1] was “an effect on growth”, the growth [2] was “an effect on growth” and the growth [3] was “no impact”. For the same molecule, the growth [4] was “an effect on growth” and the proliferation [5] was “dose-dependent inhibition”.

For `COc1cccc2c1C(=O)c1c(O)c3c(c(O)c1C2=O)C[C@@](O)(C(C)=O)C[C@@H]3O[C@H]1C[C@H](N)[C@H](O)[C@H](C)O1` [daunorubicin], the toxicity [6] was “high toxicity”.

With “RPA3si1417: siRNA CAUCUUAUGUCCAGUUUAA (SEQ ID NO: 1), derived from v2HS_32101 (listed as RNA, chemistry not fully specified)” the “cytotoxicity (reduction in culture confluency over time)” value [7] was “more cytotoxic than RPA3si1403”.

B1: shRpa3.457: shRNA, SEQ ID NO: 60 (nucleic acid)
chain: TGCTGTTGACAGTGAGCGCGCGACTCCTATAATTTCTAATTAGTGAAGCCACAGATGTAATTAGAAATTATAGGAGTCGCTTGCCTACTGCCTCGGA
In the case of B1, the “change in tumor volumes” value [8] is reported as “stopped growing or regressed”, the “effect on colony formation” value [9] is reported as “antiproliferative” and the “competition with uninfected GFP-negative cells” value [10] is reported as “outcompeted by uninfected, GFP-negative cells”.

B2: shPCNA.538: shRNA, SEQ ID NO: 56 (nucleic acid)
chain: TGCTGTTGACAGTGAGCGCGGAGTACAGCTGTGTAATAAATAGTGAAGCCACAGATGTATTTATTACACAGCTGTACTCCTTGCCTACTGCCTCGGA
With B2 the “competition with uninfected GFP-negative cells” value [10] was “outcompeted by uninfected, GFP-negative cells”.
